# Experiments:
# Type in all cases: in vivo, Cryptotis parva
# Least Shrew = assay: Dose response emesis and scratching studies with tachykinin receptor agonists; settings: for increase in the frequency of vomiting vs vehicle control / increase in emesis frequency vs vehicle control: 30 min observation; for onset of first emesis after injection: i.p. agonist injection
# From the text: The present protocols were based upon preliminary studies as well as published findings in the Least Shrew. Darmani, 2001a; Darmani et al., 69 Pharmacol. Biochem. Behay. 239-49 (2001b). On the test day, the shrews were allowed to acclimate to the test laboratory for at least one hour prior to experimentation. To habituate the animals to the test environment, each shrew was randomly selected and transferred to a 20 cm×18 cm×21 cm clean clear plastic cage and offered four mealworms (Tenebrio sp.) 30 min prior to experimentation. […]
# (§1) The data on the frequency of emesis and scratchings were analyzed by the Kruskal-Wallis (KW) nonparametric one-way analysis of variance (ANOVA) and post hoc analysis by Dunn's multiple comparisons test or Mann-Whitney test. A P value of <0.05 was necessary to attain statistical significance. The incidence of emesis (number of shrews vomiting) was analyzed by the Fisher's exact test to determine whether there were differences between groups. When appropriate, pairwise comparisons were also made by this method. Two-way analysis of variance using the Kruskal-Wallis or Fisher's exact tests were initially utilized to respectively analyze the dose-response results of GR73632 on emesis and scratching behaviors, and percentage of shrews vomiting in saporin- and corresponding saline-pretreated control shrews. […] For some emesis data, the two-tailed Mann-Whitney test was used. The SP tissue concentration data were analyzed by a one-way ANOVA followed by Dunnett's t test as post hoc analysis. Fos-IR was quantified by counting immunopositive nuclei within each hemisection containing the region of interest (ROI). The number of nuclei was averaged across sections with the ROI for each animal, and the group mean and standard error obtained.
# [1] = Analysis of SP in serum, gut and brain tissues following intraperitoneal injection of an emetic dose of SP; settings: SP 50 mg/kg i.p.
# Method: Different groups of shrews were injected with a 50 mg/kg emetic dose of SP (i.p.) and were sacrificed at 5 min, 15 min, and 30 min (n=5-6 animals per group) post injection. Blood serum as well as two different brain (frontal cortex and brain stem) and gut (duodenum and jejunum) tissue samples were collected for the determination of SP levels relative to a saline-treated shrew control group (n=6). The brain SP concentration was determined in all of the cited exposure times, whereas gut SP tissue levels were analyzed for the 0 min (control), 5 min and 15 min exposure periods Likewise, serum SP concentrations were determined at the 0 min, 5 min and 15 min exposure periods as well as in a 10 min SP-exposed shrew group.
# To collect blood, shrews were rapidly euthanized with isoflurane (Vedco, St. Joseph, Mo.) one at a time. Then, each shrew was laid on its back and taped to a metal tray, and cut transversely under the diaphragm and along the sides towards the arms to allow the ribcage to be lifted away. The heart was then held with forceps, and a 0.5 cc syringe with 28 ga hypodermic needle was inserted into the left ventricle. Blood was pulled gently into the syringe directly from the ventricle until the descending aorta appeared clear (approximately 50 μl -100 μl total volume), and rapidly transferred to a non-heparinized tube for centrifugation and removal of red blood cells. Brain and gut tissue were rapidly dissected following blood collection and decapitation. Preliminary sample preparation procedures were carried out to optimize detection conditions.
# Because proteases can be deactivated by heat (El-Salhy, 107 Upsala J. Med. Sci. 101-10 (2002)), at basic pH (Crawford & Kalmakoff, 24 J. Virol. 412-15 (1977)), and in the presence of EDTA (Wei & Bobek, 49 Antimicrob. Agents Chemother. 2336-42 (2005)), the entire intestine was immediately immersed in a 70° C. preheated, 5 ml solution of normal saline containing […] EDTA at pH8.0. After a 5 min exposure, each gut was thrice flushed and rinsed with 5 ml of the saline solution and then allowed to cool down naturally to room temperature. Then, each gut was dissected and the duodenum and jejunum samples were placed separately in test tubes containing 1 ml assay buffer. The dissected frontal cortex and brain stem samples were placed in different test tubes containing 0.5 ml assay buffer. Each sample was homogenized using a tissue tearor (Biospec) set at level 5 for 15sec. The homogenates were then centrifuged at 17,000×g for 15 min at 4° C. The supernatants were obtained and saved at −80° C. until used for the EIA detection of SP. Samples were analyzed for SP using the “Correlate-EIA” kit from Assay Designs using a microplate reader.
# as §1
# NK1 receptor = assay: Histological analysis of NK1 receptor immunotoxic lesions with SSP-saporin
# Method: (§2) Immunohistochemistry was performed by blocking free-floating sections with 10% normal horse serum (NHS) and 3% hydrogen peroxide in PB with 0.3% Triton X-100 (TX) for 30 min After rinsing three times in PB, tissue was put in either: (1) rat anti-Substance P monoclonal antibody (Chemicon, 1:400); (2) sheep anti-Fos polyclonal (Chemicon, 1:600); or (3) rabbit anti-NK1 receptor polyclonal (Santa Cruz, 1:500), with 5% NHS and 0.3% TX, and incubated overnight at room temperature with gentle shaking. After rinsing three times in PB, the tissue was placed in biotinylated donkey anti-rat, anti-sheep, or anti-rabbit (respectively) IgG secondary antibody (Jackson Immuno, dilution 1:600). The secondary antibody was diluted in the same diluent described for the primary antibody, and the tissue incubated at room temperature with shaking for 75 min. After rinsing three times in PB, tissue was incubated for 60 min in horse radish peroxidase-conjugated avidin-biotin complex (Vector Labs Vectastain kit, diluted 1:2) in PB. Tissue was then rinsed twice in PB, then once in imidazole-acetate buffer (0.1 M, pH7.4), then reacted for 6 min in 0.0006% hydrogen peroxide with 2% nickel ammonium sulfate-enhanced diaminobenzidine (DAB, 0.05% in 0.1 M imidazole-acetate buffer).
# To better localize the induction of emesis by GR73632, dose-response curves were generated for shrews pretreated either with the NK1 receptor immunotoxin SSP-saporin or saline and challenged four days later with varying doses of GR73632 (0, 1, 2.5, or 5 mg/kg, i.p., n=8-10 per group). Briefly, thirty shrews were injected i.p. with 1.2 mg/kg SSP-saporin in sterile saline, and thirty-five shrews were injected with sterile saline alone. In addition, two more shrews were injected with 1.2 mg/kg unconjugated saporin (saporin; ATS) and two more with 1.2 mg/kg of saporin conjugated to a nonspecific peptide sequence (Blank-saporin; ATS). […] Each shrew was monitored for 30 min post-injection and vomiting and scratching behaviors quantified. […]
# [2] = tested on: Least Shrew, NK1 receptor-intact or NK1 receptor-ablated; assay: GR73632 emesis and scratching after SSP-saporin ablation of peripheral NK1 receptors
# Method: To better localize the induction of emesis by GR73632, dose-response curves were generated for shrews pretreated either with the NK1 receptor immunotoxin SSP-saporin or saline and challenged four days later with varying doses of GR73632 (0, 1, 2.5, or 5 mg/kg, i.p., n=8-10 per group). Briefly, thirty shrews were injected i.p. with 1.2 mg/kg SSP-saporin in sterile saline, and thirty-five shrews were injected with sterile saline alone. In addition, two more shrews were injected with 1.2 mg/kg unconjugated saporin (saporin; ATS) and two more with 1.2 mg/kg of saporin conjugated to a nonspecific peptide sequence (Blank-saporin; ATS). Shrews were returned to the animal facility for three days and supplied with unrestricted food and water. Saporin-injected and Blank-saporin-injected shrews were perfused four days post-injection, and brain and gut harvested as described for immunohistochemical staining. The SSP-saporin and saline-injected shrews were divided into different groups on day 4 post-injection, and each group was injected i.p. with varying doses varying doses of 0, 1, 2.5, or 5 mg/kg GR73632 dissolved in saline. Each shrew was monitored for 30 min post-injection and vomiting and scratching behaviors quantified. Three shrews from each group were then perfused 90 min to 120 min post-injection as described previously for Fos immunohistochemistry, and brain and gut harvested. Immunohisto-chemistry (IHC) was performed for SP, NK1 receptor, and Fos as described, to qualitatively examine the extent of immunotoxic lesion in the brain and/or enteric nervous system. IHC for SP and NK1 receptor was done on the saporin- and Blank-saporin-injected shrews to verify the specificity of SSP-saporin and lack of toxicity of unconjugated saporin.
# as §1
# Fos = assay: Fos-IR in brain and enteric nervous system after GR73632; settings: GR73632 2.5 mg/kg i.p.
# Method: Shrews were given four mealworms each and GR73632 (2.5 mg/kg, i.p., or vehicle (saline)) injection. For emesis-related Fos visualization, a shrew was transcardially perfused 60 min to 75 min after vomiting occurred, typically 20 min to 35 min post-injection.
# After the appropriate time period as described above, shrews were anesthetized with a lethal dose of pentobarbital ([…]) and perfused transcardially via 25 ga blunted needle connected to a peristaltic pump. The shrew was perfused first with ice cold heparinized saline (0.9% NaC1, 60 sec-90 sec), followed by ice cold 4% paraformaldehyde/5% picric acid in pH7.4, 0.1 M (10 min). Brains were removed and stored in 30% sucrose in 0.1 M phosphate buffer (PB) overnight, then embedded in blocks of 12% gelatin in 30% sucrose/PB. The blocks were postfixed for 3 hr in 2% paraformaldehyde/PB, then rinsed and immersed in 30% sucrose/PB until they sank (usually 1 hr to 2 hr). The brain block was cut on a freezing benchtop microtome (Leica) at 30 μm into five series, and stored in PB with 0.03% sodium azide.
# as §2
# After reacting, the tissue was rinsed thoroughly in PB and mounted onto gel-subbed slides out of PB. After air-drying, slides were dehydrated through a series of ascending ethanols (50%-75%-90%-100%), then cleared in xylene (Fisher). Cleared slides were coverslipped with DEPEX (Electron Microscopy Sciences).
# Photomicrographs of regions of interest were taken at 1600×1200 pixel digital resolution with a SPOT digital camera (Diagnostic Instruments) attached to a Pentium 4 PC running version 4.0 of the SPOT software. The camera was mounted to a Nikon Eclipse E600 microscope. A calibrated scale bar was added and the photos exported to Adobe Photoshop 7, where the Photoshop brush tool was used to mark Fos+nuclei as they were counted. Relevant structures were identified using an atlas produced in lab (Ray & Darmani, 2007). Cell counts for each structure were averaged on a per-section basis and collated in a spreadsheet for statistical analysis.
# The data on the frequency of emesis and scratchings were analyzed by the Kruskal-Wallis (KW) nonparametric one-way analysis of variance (ANOVA) and post hoc analysis by Dunn's multiple comparisons test or Mann-Whitney test. A P value of <0.05 was necessary to attain statistical significance. The incidence of emesis (number of shrews vomiting) was analyzed by the Fisher's exact test to determine whether there were differences between groups. When appropriate, pairwise comparisons were also made by this method. […]
substance,measurement,setting,value
"SP: tachykinin undecapeptide, nonselective NK1 receptor agonist, purchased from Sigma/RBI",emetic activity,Least Shrew; 10 mg/kg i.p.,inactive
same,emetic activity,Least Shrew; 25 mg/kg i.p.,inactive
same,percentage of shrews vomiting,Least Shrew; 50 mg/kg i.p.,82%
same,increase in the frequency of vomiting vs vehicle control,Least Shrew; 50 mg/kg i.p.,382%
same,percentage of shrews vomiting,Least Shrew; 100 mg/kg i.p.,78%
same,increase in the frequency of vomiting vs vehicle control,Least Shrew; 100 mg/kg i.p.,322%
same,other overt behavioral effect (e.g. scratching),"Least Shrew; at the doses tested, 10-100 mg/kg i.p.",no other overt behavioral effect
same,onset of first emesis after injection,Least Shrew,1 to 2 min
same,time for brain stem SP-tissue level to attain maximal levels,[1],15 min
same,decrease of basal frontal cortex SP concentration,[1]; 5 min,34%
same,increase of basal SP blood serum level,[1]; 5 min post-injection,3488 fold
same,increase of brain stem SP over basal level,[1]; 5 min post-injection,156%
same,decrease of basal frontal cortex SP concentration,[1]; 15 min,68%
same,increase of brain stem SP over basal level,[1]; 15 min post-injection,287%
same,brain stem SP level,[1]; 30 min,returned to basal tissue level
same,decrease of basal frontal cortex SP concentration,[1]; 30 min,89%
same,SP blood serum level,[1]; by 10 min,rapidly declined
same,duodenal SP tissue level increase over basal levels,[1]; within 5 min,1883%
same,jejunal SP tissue level increase over basal level,[1]; within 5 min,2133%
"[Sar^9, Met (O2)“]-SP-saporin [SSP-saporin]",NK1 receptor-IR in the gut vs saline-treated controls,"NK1 receptor; 1.2 mg/kg i.p., four days",clear loss
same,blood brain barrier penetration,"NK1 receptor; peripherally administered, 1.2 mg/kg i.p.",does not penetrate the blood brain barrier
"delta Ava [L-Pro^9, N-MeLeu^10]SP (7-11) [GR73632]",percentage of shrews vomiting,"[2]; GR73632 1 mg/kg, NK1 receptor-intact (saline-pretreated) shrews",44%
same,number of vomits,"[2]; GR73632 1 mg/kg, normal shrews",about two vomits
same,percentage of shrews vomiting,"[2]; GR73632 1 mg/kg, saporin-pretreated NK1 receptor-ablated shrews",0%
same,percentage of shrews vomiting,"[2]; GR73632 2.5 mg/kg, NK1 receptor-ablated shrews",28%
same,percentage of shrews vomiting,"[2]; GR73632 2.5 mg/kg, NK1 receptor-intact shrews",62.5%
same,"bouts of vomiting, ablated vs intact shrews","[2]; GR73632 5 mg/kg, NK1 ablated shrews",significantly less bouts of vomiting
same,percentage of shrews vomiting,"[2]; GR73632 5 mg/kg, NK1 receptor-ablated shrews",100%
same,percentage of shrews vomiting,"[2]; GR73632 5 mg/kg, NK1 receptor-intact shrews",100%
same,number of scratches,"[2]; GR73632 1, 2.5, 5 mg/kg, NK1 receptor-ablated shrews",increased in a significant manner at all tested doses
same,duration of expulsion of food/liquid,[2]; NK1 receptor-ablated shrews,15 to 30 s
same,duration of emesis (each vomit expulsion),[2]; NK1 receptor-intact animals,2 to 4 s
same,frequency of scratching behavior vs vehicle,Least Shrew; 2.5 mg/kg i.p.,Significant enhancements
same,percentage of shrews vomiting,Least Shrew; 2.5 mg/kg i.p.,87.5%
same,increase in emesis frequency vs vehicle control,Least Shrew; 2.5 mg/kg i.p.,438%
same,frequency of scratching behavior vs vehicle,Least Shrew; 5 mg/kg i.p.,Significant enhancements
same,percentage of shrews vomiting,Least Shrew; 5 mg/kg i.p.,100%
same,increase in emesis frequency vs vehicle control,Least Shrew; 5 mg/kg i.p.,575%
same,onset of first emesis after injection,Least Shrew,3 to 4 min
same,Fos-IR in gastrointestinal enteric nervous system vs saline,Fos,significant differences
same,shrews in which vomiting was induced,Fos; N=6,five of six
same,"Fos-IR nuclei per coronal hemisection, AP",Fos; mean ± standard error,2.4 ± 1.2
same,"Fos-IR nuclei per coronal hemisection, DMNX",Fos; mean ± standard error,3.3 ± 1.0
same,"Fos-IR nuclei per coronal hemisection, NTS",Fos; mean ± standard error,8.2 ± 1.1
same,"Fos-IR nuclei per coronal hemisection, PFC",Fos; mean ± standard error,58.4 ± 14.2
saporin,NK1 receptor-IR and SP-IR vs control shrews,"NK1 receptor; 1.2 mg/kg, four days post-injection",not different

# Reference: patent US20110093959A1, “CRYPTOTIS PARVA SCREENING MODEL FOR ANTIEMETIC POTENTIAL” (priority 2008, published 2011)
